Experimental data from patent US12496302B2, “Compositions and methods for the treatment and diagnosis of cancer” (The General Hospital Corporation, priority 2020, dated 2025).
“Also recorded” adds a separate entry of the source.

Assays:
Type in all cases: cell-based
[1] = system: MCF-7, HCC1954, and HCC1937 cells; assay: Cell survival assay, YW-1842 combined with DNA damaging agents, IR or H2O2
Method: (§1) FIGS. 6A-6E show TRDMT1 Inhibitors specifically sensitizes cells to DNA damage agents. (FIG. 6A) SCE WT cells were transfected with TA-KR and were cultured with 2.5 μM/L, compound YW-1842 or not for 6 hours, m^5C (n=3, 50 cells per replicated, Mean±SD) was stained and quantified. DR-GFP (FIG. 6B) or EJ5-GFP (FIG. 6C) cells were pre-treated with 2.5 μM/L, compound YW-1842 for 6 h or TRDMT1 siRNA for 48 h, or DMSO. Then the cells were transfected with NLS-I-SceI plasmid to induce DSB. The efficiency of HR (FIG. 6B) or NHEJ (FIG. 6C) was analyzed by flow-cytometry (n=3, Mean±SD). (FIG. 6D) After seeding, MCF-7, HCC1954, and HCC1937 cells were pre-treated with or without 2.5 μM/L compound YW-1842 for 6 h, then cultured with chemotherapy drugs (1 μM/L, Cisplatin; 1 μM/L ATRi AZ20; 10 μM/L, ATMi KU55933; 1 μM/L, PARPi Olaparib for 10 days. The survival rate of these cells was analyzed (n=3, Mean±SD). (FIG. 6E) TRDMT1 KO U2OS cells were transfected with GFP-TRDMT1^WT or GFP-TRDMT1^G155V with or without 2.5 μM/L, compound YW-1842, the survival rate of these cells after IR or Cisplatin was shown (n=3, Mean±SD).
MCF-7, HCC1954, and HCC1937 cells were pre-treated with or without TRDMT1 inhibitor YW-1842 (2.5 μM) for 6 hrs, then the cells were exposed to IR or H2O2, and cultured for 7-14 days. The survival rate of these cells was analyzed (n=3, Mean±SD)
(§2) Approximately 500 U2OS/TRDMT1 KO U2OS/MCF-7/HCC1954/HCC1937 cells and TRDMT1 siRNA or GFP-TRDMT1 WT/G155V/K251R transfected cells were seeded in 6 cm dish with or without TRDMT1 inhibitors (2.5 μM/L). 6 hrs after seeding, cells were exposed to cisplatin (1134357, Sigma, 1 μM/L), ATMi (KU55933, C9867, Sigma, 10 μM/L), ATRi (AZ20, S7050, Selleck, 1 μM/L) or PARPi (Olaparib, AZD2461, Sigma, 1 μM/L) at indicated concentration or ionizing radiation (IR). After 7-14 days, colonies were fixed and stained with 0.3% crystal violet in methanol, and the number of colonies was counted manually.

[2] = biological target: T1, TRDMT1 (Homo sapiens, UniProt O14717); assay: m^5C staining at TA-KR DNA damage sites in cells treated with YW-1842
T1 construct: SCE WT cells were transfected with TA-KR and were cultured with 2.5 μM/L, compound YW-1842 or not for 6 hours; endogenous in cells; host or cells: SCE WT cells (U2OS-TRE type) transfected with TA-KR only
T1 sequence (O14717 1-391): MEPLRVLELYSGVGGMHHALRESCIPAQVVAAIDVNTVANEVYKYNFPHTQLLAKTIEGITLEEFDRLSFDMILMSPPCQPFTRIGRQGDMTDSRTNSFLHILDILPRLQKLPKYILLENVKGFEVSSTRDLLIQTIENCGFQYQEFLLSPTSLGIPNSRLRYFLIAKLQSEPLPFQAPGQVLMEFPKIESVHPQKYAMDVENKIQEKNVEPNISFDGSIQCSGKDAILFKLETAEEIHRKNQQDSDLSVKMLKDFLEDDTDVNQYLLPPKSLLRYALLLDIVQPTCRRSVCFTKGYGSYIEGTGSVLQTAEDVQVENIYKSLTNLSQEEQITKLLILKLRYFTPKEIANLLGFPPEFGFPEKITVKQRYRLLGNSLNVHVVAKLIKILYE
Method: as §1
The Olympus FV1000 confocal microscopy system (Cat. F10PRDMYR-1, Olympus) and FV1000 software were used for the acquisition of images. Cells were cultured in 35 mm glass-bottom dishes (MatTek, P35GC-1.5-14-C) before observation. Activation of KR in bulky cells was completed by exposing cells to a 15 W Sylvania cool white fluorescent bulb for 25 min in a stage UVP (Uvland, CA). The intensity was measured by ImageJ 1.52i software.
For m^5C staining using the heat method, the cells or tissues were fixed and permeabilized in a 35 mm glass-bottom dish using a standard protocol, incubated in buffer (10 mM Tris-HCl, 2 mM EDTA, pH=9) and steamed on a 95° C. heating block for 20 min to expose the antigen. The dish was cooled, washed 3 times with PBS and blocked using 5% BSA in 0.1% PBST for 0.5 h at room temperature. Primary antibody for m^5C (33D3, ab10805, Abcam) and secondary antibody were diluted in the same buffer (5% BSA in 0.1% PBST) and followed the standard IF protocol. […]

[3] = system: TRDMT1 KO U2OS cells; assay: Cell survival after IR or Cisplatin in TRDMT1 KO U2OS cells with or without YW-1842; conditions: 2.5 μM/L
Method: as §1
Approximately 500 U2OS/TRDMT1 KO U2OS/MCF-7/HCC1954/HCC1937 cells and TRDMT1 siRNA or GFP-TRDMT1 WT/G155V/K251R transfected cells were seeded in 6 cm dish with or without TRDMT1 inhibitors (2.5 μM/L). […]

[4] = system: γ-H2AX foci; assay: γ-H2AX foci clearance after damage; conditions: 2.5 μM/L YW-1842
Method: (§3) FIGS. 6F-6G show TRDMT1 inhibitor YW-1842 delays the repair of DSBs at the transcribed genome. (FIG. 6F) U2OS or MCF7 cells were treated with or without compound YW-1842 at the indicated concentration. The survival rate of these cells was shown (n=3, Mean±SD). (FIG. 6G) SCE WT cells were transfected with TA-KR and were cultured with 2.5 μM YW-1842 or not for 6 hours, γ-H2AX (n=3, 50 cells per replicated, Mean±SD) were stained and quantified.
Cells for immunofluorescence observation were fixed in 4% PFA (Affymetrix, 19943 1 LT) at room temperature for 15 min and further treated with 0.2% triton for 10 min. They were then blocked by 3% BSA (SIGMA, A-7030) at room temperature for 1 h. Primary antibody for RAD51 (ab63801, Abcam, 1:200)), RAD52 (sc-365341, Santa Cruz, CA, USA, 1:500), TRIM28 (ab10484, Abcam, 1:500), γH2AX ser139 (JBW301, 05-636, EMD Millipore, 1:200), were incubated with cells at 4° C. overnight. After washing with 0.05% PBS-Tween (PBST), the cells were incubated with secondary antibody for 1 h at room temperature.

[5] = system: U2OS or MCF7 cells; assay: Cell survival of U2OS or MCF7 cells treated with YW-1842 alone
Method: as §3, §2

COc1cc2nc(-n3cc(-c4ccc(S(C)(=O)=O)cc4)cn3)nc(-c3ccsc3)c2cc1OC [YW-1842, 6,7-dimethoxy-2-(4-(4-(methylsulfonyl)phenyl)-1H-pyrazol-1-yl)-4-(thiophen-3-yl)quinazoline]
survival rate in combination with H2O2 compared to DMSO ([1]; 2.5 μM, combined with H2O2): decreased the survival rate of all the three cell lines
sensitivity to IR in combination ([1]; 2.5 μM, combined with IR): clear sensitivity enhancement
sensitization to DNA damaging agents (Cisplatin, ATRi AZ20, ATMi KU55933, PARPi Olaparib) compared to single treatment ([1]; 2.5 μM/L pre-treatment 6 h): sensitizes the cells
synergy with PARPi Olaparib ([1]; YW-1842 2.5 μM, Olaparib 1 μM, HCC 1954 cell lines): strong synergy
TRDMT1 inhibition (overall statement) [2]: potent inhibitor for TRDMT1; also recorded: high inhibitory activity
inhibiting TRDMT1 recruitment, m^5C formation and HR efficiency at DNA damage sites [2]: performed well
m^5C inhibitory activity ([2]; 2.5 μM/L, 6 hours, cells transfected with TA-KR): almost equivalent to TRDMT1 depletion
sensitization of TRDMT1 KO cells to IR or Cisplatin [3]: does not sensitize TRDMT1 KO
DNA repair efficiency (clearance of γ-H2AX foci after IR) [4]: delayed clearance of γ-H2AX foci
cell killing by compound alone ([5]; 2.5 μM/L): does not kill cells alone
antiproliferative effect (cell proliferation) ([5]; concentration below 5 μM/L): did not prohibit cell proliferation
